Assay: gradient 5% acetonitrile 3 min, to 50% in 2 min, to 85% in 15 min, held 3 min, 100 µL/min
Conditions: column: Zorbax Extend-C18 2.1 x 50 mm; eluents: water / acetonitrile, 0.1% formic acid
Outline: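 Using water and acetonitrile that each contained 0.1% formic acid, mixtures of ~100 pure standards were separated at 100 μL/min on a Zorbax Extend-C18 column (2.1 × 50 mm, 1.8 μm). The HPLC fed a quadrupole time-of-flight mass spectrometer working in positive and negative ionization mode, with dead and dwell volumes of 40 μL and 900 μL. Data were acquired over 3 months. Retention time was read from computationally picked adduct peaks after manual inspection of each.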

SMILES | RP-LC retention time
COc1ccc(-c2noc(C3CCCN3C(=O)Nc3ccc(F)cc3F)n2)cc1 (stereo unspecified) | 963 s
Cn1cccc1C(=O)N1CC[C@H](n2c(=O)n(C)c3cccnc32)C1 | 695 s
CCN1CCN(CCCNC(=O)CN2CCSc3ccccc32)CC1 | 580 s
CCOC(=O)c1c(C)[nH]c(C(=O)N2CCCC(C(=O)NCCCN3CCCC3)C2)c1C (stereo unspecified) | 589 s
Cc1nc(-c2ccc3c(c2)CCN3C(=O)c2n[nH]c3ccccc23)cs1 | 959 s
COc1ccc(CNC(=O)Cn2c(=O)c3cc(-c4cccs4)nn3c3ncccc32)cc1 | 816 s
COc1cccc(CNC(=O)NC2CCN(c3cc(C)cc(C)c3)C2=O)c1 (stereo unspecified) | 840 s
Cc1ccc(NC(=O)N2CCC(N(C(=O)C3CC3)C3CCOCC3)CC2)c(C)c1 | 722 s
CCOc1ccccc1-c1nc(Cn2cnc3onc(C)c3c2=O)c(C)o1 | 928 s
CC(C)N1C(=O)c2cccnc2Sc2cc(NC(=O)c3ccc(F)cc3)ccc21 | 896 s
COCC(C)(O)CNS(=O)(=O)Cc1cccc(F)c1 (stereo unspecified) | 641 s
CCOc1ccc(NC(=O)CSc2nnc3c4cc(-c5ccc(C)c(C)c5)nn4ccn23)cc1 | 973 s
CCc1cccc(NS(=O)(=O)c2cc3n(c2)CCN(CC(C)C)C3=O)c1 | 852 s
CCc1nc2cc(N3CCC(C(=O)NCCN4CCCCCC4)CC3)cnc2nc1CC | 613 s
CCCCn1nnc(NCc2ccc(-c3cc(Cl)ccc3Cl)o2)n1 | 1220 s
Cc1ccnc(Nc2nc(-c3cc(C)ccc3C)cs2)c1 | 882 s
O=C(Nc1nccs1)C1CC(=O)N(CCc2c[nH]c3ccc(Cl)cc23)C1 (stereo unspecified) | 745 s
CC(NC(=O)Cn1nc(Cc2cccnc2)c2ccccc2c1=O)c1ccc2c(c1)OCCO2 (stereo unspecified) | 632 s
CC(C)OCCCNC(=O)CN1c2ccc(F)cc2-c2ccccc2S1(=O)=O | 890 s
CC(C)N1CCn2cc(S(=O)(=O)Nc3ccc(Cl)cc3F)cc2C1=O | 812 s
COc1ccc(-c2nnc(COc3ccc(NC(=O)c4ccnc(Cl)c4)cc3)o2)cc1 | 868 s
Cc1ccc(C2Cn3cnc(C(=O)N4CCC(C(=O)NC5CCCCC5)CC4)c3CO2)cc1 (stereo unspecified) | 794 s

SMILES | RP-LC retention time
Cc1ccc(N2CC(c3noc(COc4cccc(C)c4)n3)CC2=O)cc1 (stereo unspecified) | 1050 s
CC(C)CCNC(=O)C1CCCN(c2nnc3ccc(C(F)(F)F)cn23)C1 (stereo unspecified) | 829 s
Cc1cc(C)cc(NC(=O)c2cccn2Cc2noc(C)n2)c1 | 928 s
Cc1cccc(-n2ccn(CC#N)c(=O)c2=O)c1C | 639 s
O=C(c1ccco1)N1CCN(C(=O)C2CCCN(c3ncnc4c3nc3n4CCCCC3)C2)CC1 (stereo unspecified) | 657 s
O=C(O)c1nnn(-c2cccc(Br)c2)c1C(F)(F)F | 836 s
CN(C)C(CNC(=O)c1cc(=O)c2cc(Cl)ccc2o1)c1ccccc1 (stereo unspecified) | 650 s
CN(C)C(=O)c1cn(C2CN(C(=O)CCc3c[nH]c4ccccc34)C2)nn1 | 652 s
CCCN(CCC)C(=O)C1CCN(C(=O)c2ccccc2Cl)CC1 | 602 s
CCOc1ccc(-c2[nH]ncc2CN)cc1 | 575 s
O=S(=O)(c1cc(-c2noc(C3CCCC3)n2)cs1)N1CCCCC1 | 1240 s
CCCN1C(=O)COc2ccc(-c3csc(NC(=O)c4ccc(OC)c(OC)c4)n3)cc21 | 971 s
NC(=O)C1CCN(C(=O)CN2CCC(Cc3ccccc3)CC2)CC1 | 591 s
Cc1ccc(Nc2nc(-c3ccc(C)cc3C)cs2)nc1 | 965 s
COCCN1C(=O)c2cccn2CC1CNC(=O)Cc1c(C)noc1C (stereo unspecified) | 610 s
O=C(NC1CCN(c2cc(-c3cccs3)[nH]n2)C1)c1cc(F)ccc1Cl (stereo unspecified) | 797 s
Cc1ccc(-c2cc(C(=O)NC3CCCCC3)c(C)[nH]2)cc1C | 1020 s
O=C(c1ccc(-c2ccsc2)nc1)N1CCCCC1 | 792 s
CCCn1ccc2sc(C)c(C(=O)N3CCN(C(C)C)CC3)c2c1=O | 587 s
CC(C)C(NC(=O)c1cccc(CN2C(=O)C3CCCN3C(=O)c3ccccc32)c1)c1cccs1 (stereo unspecified) | 882 s
O=C(Nc1ccc(-c2cn3ccccc3n2)cc1)c1ccc([N+](=O)[O-])cc1 | 586 s

Now from value to compound:

RP-LC retention time | SMILES
584 s | O=S(=O)(NCCCCN1CCOC(c2ccccc2)C1)c1ccc(F)cc1F (stereo unspecified)
788 s | CCc1ccc(C2=C(C)C(N3CCCN(C(=O)c4ccccn4)CC3)=NS2(=O)=O)cc1
822 s | CCOc1ccccc1C(=O)Nc1ccc2c(c1)Sc1ncccc1C(=O)N2CC
988 s | COc1ccccc1NC(=O)Cn1c(C)cc(-c2nnc(-c3ccccc3)o2)c1C
986 s | COc1cc(-c2nnc(-c3ccc(C)c(S(=O)(=O)N4CCCC4)c3)o2)cc(OC)c1OC
716 s | O=C(NC1CCCC1)C1CCCN(c2ccc3cc(S(=O)(=O)N4CCCC4)ccc3n2)C1 (stereo unspecified)
828 s | COc1cccc(N2CCN(C(=O)Cn3ccc4c(c(C)nn4-c4ccccc4)c3=O)CC2)c1
873 s | O=C(C1=NN(Cc2ccccc2Cl)c2ccccc2S1(=O)=O)N1CCOCC1
829 s | COc1ccccc1NC(=O)C1CC(=O)N(CCc2c[nH]c3ccc(Cl)cc23)C1 (stereo unspecified)
721 s | Cn1nc(CN(C(=O)c2ccc(F)cc2)c2ccccc2)c2c1CCN(S(C)(=O)=O)C2
692 s | COc1ccccc1CNC1=NCCNC12CCN(S(=O)(=O)c1ccccc1)CC2
1070 s | CC(C)n1cc(S(=O)(=O)N2CCN(c3ccccc3)CC2)c2cccnc21
790 s | CCC(=O)N1CCc2c(sc3ncnc(NCc4ccccc4)c23)C1
635 s | COc1ccc(OC)c(S(=O)(=O)N2CCCC(C(=O)N3CCC(C(N)=O)CC3)C2)c1 (stereo unspecified)
881 s | COc1ccccc1-c1noc(C2CCCN2C(=O)Nc2cccc(C)c2)n1 (stereo unspecified)
689 s | O=C(NCCN1CCOCC1)c1ccc2c(c1)CCCN2S(=O)(=O)c1ccc(Cl)cc1
820 s | COc1ccc(C(=O)NCc2cnoc2-c2ccc(F)cc2)cc1OC
817 s | COc1ccc2[nH]cc(CCNC(=O)Cn3nc(C)c4nn(-c5ccccc5)c(C)c4c3=O)c2c1
674 s | CN(C)CCNC(=O)c1cc2cc(S(=O)(=O)N(C)C)ccc2n1Cc1ccccc1
887 s | O=C(O)C1CCN(S(=O)(=O)c2ccc(Cl)c(-c3nnc(-c4ccccc4)o3)c2)CC1
629 s | Nc1nc(N2CCN(C3CCCCC3)CC2)ncc1C(=O)NCc1ccccc1F
767 s | CCCc1ccc(S(=O)(=O)N2CCC(n3cnnc3C)CC2)cc1
699 s | Cc1ccc2nc(N3CCN(c4ccccc4)CC3)c(-c3noc(C)n3)cc2c1

From the METLIN SMRT retention time set (Domingo-Almenara et al. 2019)
